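Growth conditions: 96-well plates. Treatment: test compound, 48 hours, 5 concentrations. Analysis: linear interpolation between bracketing concentrations; unreached endpoints set to highest concentration. Abbreviation: GI50, concentration required for 50% inhibition of growth. TGI: concentration producing complete growth inhibition.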
Key:
Assay in all cases: NCI-60 cell line screen, 48 h
786-0 renal = test system: 786-0 renal
A498 renal = test system: A498 renal
A549 NSCLC = test system: A549 NSCLC
ACHN renal = test system: ACHN renal
BT-549 breast = test system: BT-549 breast
CAKI-1 renal = test system: CAKI-1 renal
CCRF-CEM leukemia = test system: CCRF-CEM leukemia
COLO 205 colon = test system: COLO 205 colon
DU-145 prostate = test system: DU-145 prostate
EKVX NSCLC = test system: EKVX NSCLC
HCC-2998 colon = test system: HCC-2998 colon
HCT-116 colon = test system: HCT-116 colon
HCT-15 colon = test system: HCT-15 colon
HL-60(TB) leukemia = test system: HL-60(TB) leukemia
HOP-62 NSCLC = test system: HOP-62 NSCLC
HOP-92 NSCLC = test system: HOP-92 NSCLC
HS 578T breast = test system: HS 578T breast
HT29 colon = test system: HT29 colon
IGROV1 ovarian = test system: IGROV1 ovarian
K-562 leukemia = test system: K-562 leukemia
KM12 colon = test system: KM12 colon
LOX IMVI melanoma = test system: LOX IMVI melanoma
M14 melanoma = test system: M14 melanoma
MALME-3M melanoma = test system: MALME-3M melanoma
MCF7 breast = test system: MCF7 breast
MDA-MB-231 breast = test system: MDA-MB-231 breast
MDA-MB-435 = test system: MDA-MB-435
MOLT-4 leukemia = test system: MOLT-4 leukemia
NCI-H226 lung = test system: NCI-H226 lung
NCI-H23 lung = test system: NCI-H23 lung
NCI-H460 lung = test system: NCI-H460 lung
NCI-H522 lung = test system: NCI-H522 lung
NCI/ADR-RES ovarian = test system: NCI/ADR-RES ovarian
OVCAR-3 ovarian = test system: OVCAR-3 ovarian
OVCAR-4 ovarian = test system: OVCAR-4 ovarian
OVCAR-5 ovarian = test system: OVCAR-5 ovarian
OVCAR-8 ovarian = test system: OVCAR-8 ovarian
PC-3 prostate = test system: PC-3 prostate
RPMI-8226 leukemia = test system: RPMI-8226 leukemia
RXF 393 renal = test system: RXF 393 renal
SF-268 CNS = test system: SF-268 CNS
SF-295 CNS = test system: SF-295 CNS
SF-539 CNS = test system: SF-539 CNS
SK-MEL-2 melanoma = test system: SK-MEL-2 melanoma
SK-MEL-28 melanoma = test system: SK-MEL-28 melanoma
SK-MEL-5 melanoma = test system: SK-MEL-5 melanoma
SK-OV-3 ovarian = test system: SK-OV-3 ovarian
SN12C renal = test system: SN12C renal
SNB-19 CNS = test system: SNB-19 CNS
SNB-75 CNS = test system: SNB-75 CNS
SR leukemia = test system: SR leukemia
SW-620 colon = test system: SW-620 colon
T-47D breast = test system: T-47D breast
TK-10 renal = test system: TK-10 renal
U251 CNS = test system: U251 CNS
UACC-257 melanoma = test system: UACC-257 melanoma
UACC-62 melanoma = test system: UACC-62 melanoma
UO-31 renal = test system: UO-31 renal

## O=C(NNc1nc2cc(F)cc(F)c2n2cccc12)c1ccncn1
786-0 renal
  GI50: > 30 µM
  TGI: > 30 µM
A498 renal
  GI50: > 30 µM
  TGI: > 30 µM
A549 NSCLC
  GI50: > 30 µM
  TGI: > 30 µM
ACHN renal
  GI50: > 30 µM
  TGI: > 30 µM
BT-549 breast
  GI50: > 30 µM
  TGI: > 30 µM
CAKI-1 renal
  GI50: > 30 µM
  TGI: > 30 µM
CCRF-CEM leukemia
  GI50: > 30 µM
  TGI: > 30 µM
COLO 205 colon
  GI50: > 30 µM
  TGI: > 30 µM
DU-145 prostate
  GI50: > 30 µM
  TGI: > 30 µM
EKVX NSCLC
  GI50: > 30 µM
  TGI: > 30 µM
HCC-2998 colon
  GI50: > 30 µM
  TGI: > 30 µM
HCT-116 colon
  GI50: > 30 µM
  TGI: > 30 µM
HCT-15 colon
  GI50: > 30 µM
  TGI: > 30 µM
HL-60(TB) leukemia
  GI50: > 30 µM
  TGI: > 30 µM
HOP-62 NSCLC
  GI50: > 30 µM
  TGI: > 30 µM
HOP-92 NSCLC
  GI50: > 30 µM
  TGI: > 30 µM
HS 578T breast
  GI50: > 30 µM
  TGI: > 30 µM
HT29 colon
  GI50: > 30 µM
  TGI: > 30 µM
IGROV1 ovarian
  GI50: > 30 µM
  TGI: > 30 µM
K-562 leukemia
  GI50: > 30 µM
  TGI: > 30 µM
KM12 colon
  GI50: > 30 µM
  TGI: > 30 µM
LOX IMVI melanoma
  GI50: > 30 µM
  TGI: > 30 µM
M14 melanoma
  GI50: > 30 µM
  TGI: > 30 µM
MALME-3M melanoma
  GI50: > 30 µM
  TGI: > 30 µM
MCF7 breast
  GI50: > 30 µM
  TGI: > 30 µM
MDA-MB-231 breast
  GI50: > 30 µM
  TGI: > 30 µM
MDA-MB-435
  GI50: > 30 µM
  TGI: > 30 µM
MOLT-4 leukemia
  GI50: > 30 µM
  TGI: > 30 µM
NCI-H226 lung
  GI50: > 30 µM
  TGI: > 30 µM
NCI-H23 lung
  GI50: > 30 µM
  TGI: > 30 µM
NCI-H460 lung
  GI50: > 30 µM
  TGI: > 30 µM
NCI-H522 lung
  GI50: > 30 µM
  TGI: > 30 µM
NCI/ADR-RES ovarian
  GI50: > 30 µM
  TGI: > 30 µM
OVCAR-3 ovarian
  GI50: > 30 µM
  TGI: > 30 µM
OVCAR-4 ovarian
  GI50: > 30 µM
  TGI: > 30 µM
OVCAR-5 ovarian
  GI50: > 30 µM
  TGI: > 30 µM
OVCAR-8 ovarian
  GI50: > 30 µM
  TGI: > 30 µM
PC-3 prostate
  GI50: > 30 µM
  TGI: > 30 µM
RPMI-8226 leukemia
  GI50: > 30 µM
  TGI: > 30 µM
RXF 393 renal
  GI50: > 30 µM
  TGI: > 30 µM
SF-268 CNS
  GI50: > 30 µM
  TGI: > 30 µM
SF-295 CNS
  GI50: > 30 µM
  TGI: > 30 µM
SF-539 CNS
  GI50: > 30 µM
  TGI: > 30 µM
SK-MEL-2 melanoma
  GI50: > 30 µM
  TGI: > 30 µM
SK-MEL-28 melanoma
  GI50: > 30 µM
  TGI: > 30 µM
SK-MEL-5 melanoma
  GI50: > 30 µM
  TGI: > 30 µM
SK-OV-3 ovarian
  GI50: > 30 µM
  TGI: > 30 µM
SN12C renal
  GI50: > 30 µM
  TGI: > 30 µM
SNB-19 CNS
  GI50: > 30 µM
  TGI: > 30 µM
SNB-75 CNS
  GI50: > 30 µM
  TGI: > 30 µM
SR leukemia
  GI50: > 30 µM
  TGI: > 30 µM
SW-620 colon
  GI50: > 30 µM
  TGI: > 30 µM
T-47D breast
  GI50: > 30 µM
  TGI: > 30 µM
TK-10 renal
  GI50: > 30 µM
  TGI: > 30 µM
U251 CNS
  GI50: > 30 µM
  TGI: > 30 µM
UACC-257 melanoma
  GI50: > 30 µM
  TGI: > 30 µM
UACC-62 melanoma
  GI50: > 30 µM
  TGI: > 30 µM
UO-31 renal
  GI50: > 30 µM
  TGI: > 30 µM

From PubChem BioAssay (NCI)
